# Several values for one entry are separate records, joined by “and”; a condition that tells them apart may be missing. Equal entries are not always repeated. Where two headings read alike, the source gives them in different places.
# What was measured:
# CYP2C9 = CYP2C9 (Homo sapiens, UniProt P11712); assay: in vitro
# CYP 2D6 = CYP 2D6 (Homo sapiens, UniProt P10635); assay: biochemical
# in vivo [1] = conditions: female, C57 Black, mouse; for AUC: iv, 3 mg/kg; for bioavailability: po, 10 mg/kg
# Procedure: (§1) Test compound was dosed as a bolus solution intravenously at 3 mg of free base/kilogram (dose volume 5 mL/kg; dose vehicle Saline or 10% DMSO; 40% PEG400; 50% saline) to female C57 Black (n = 3) or dosed orally by gavage as a solution at 10 mg of free base/kilogram (dose volume 10 mL/kg; dose vehicle 10% DMSO; 40% PEG400; 50% distilled water) to female C57 Black (n = 3/dose level). Blood samples were taken from each mouse tail vein at predetermined time points postdose, mixed with two volumes of distilled water, and stored frozen until UPLC/MS/MS analysis. Pharmacokinetic parameters were derived from the blood concentration time curve using PK Solutions software v 2.0 (Summit Research Services, USA).
# [2] = test system: Madin Darby Canine Kidney (MDCK); conditions: for P-glycoprotein (P-gp) efflux (in words) / permeability (in words): MDCK-MDR1; for P-gp Efflux B→ A/A → B: dog, MDCK
# Vero cells [3] = assay: cells; conditions: Chlorocebus sabaeus, read-out: VERO IC50
# Procedure: (§2) Compounds were solubilized in DMSO and assayed as a 10-point 3-fold serial dilution. Compounds were incubated with cells for 2 days at 37 °C, 5% CO2. CellTiter-Glo Reagent (Promega) was added and relative luminescent units (RLU) measured.
# [4] = microsomes
# CYP2C19 = CYP2C19 (Homo sapiens, UniProt P33261); assay: in vitro
# [5] = female, C57 Black, mouse, in vivo, iv, 3 mg/kg
# Procedure: as §1
# CYP 1A2 = target: T1, CYP 1A2 (Homo sapiens, UniProt P05177); assay: CYP inhibition 1A2
# T1 sequence (P05177 1-516): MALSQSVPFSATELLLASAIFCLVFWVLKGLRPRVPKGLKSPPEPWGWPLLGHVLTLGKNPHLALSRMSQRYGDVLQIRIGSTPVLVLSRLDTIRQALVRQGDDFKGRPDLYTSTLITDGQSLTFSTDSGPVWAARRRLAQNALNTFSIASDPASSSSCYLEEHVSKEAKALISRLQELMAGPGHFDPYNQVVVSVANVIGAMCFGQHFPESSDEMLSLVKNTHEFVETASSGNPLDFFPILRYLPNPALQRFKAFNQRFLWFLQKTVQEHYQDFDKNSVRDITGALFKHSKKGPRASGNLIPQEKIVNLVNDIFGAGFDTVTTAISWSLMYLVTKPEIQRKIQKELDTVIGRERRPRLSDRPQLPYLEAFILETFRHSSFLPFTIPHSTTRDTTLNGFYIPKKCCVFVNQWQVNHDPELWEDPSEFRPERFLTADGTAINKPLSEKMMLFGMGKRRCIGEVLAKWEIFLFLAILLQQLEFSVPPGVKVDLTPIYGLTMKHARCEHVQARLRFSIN
# in vitro [6] = conditions: dog, MDCK-MDR1
# [7] = for Cli mouse / scaled Clpre: female, CD1, mouse, pH 7.4
# in vitro [8] = conditions: African green monkey, Vero cytotoxicity
# Procedure: as §2
# M. tuberculosis H37Rv [9] = assay: microbe, parasite or virus in culture; format: cell-based, Mycobacterium tuberculosis; conditions: for MIC / MIC90 / IC90: Mycobacterium tuberculosis, H37RV; for MIC90: read-out: MIC (MIC90); for IC90: read-out: TB-IC90_OD GEOM_MEAN
# [10] = pH 2/6/7.4
# Procedure: (§3) Samples are stirred for 20 h and filtered through a 0.7 μm GF filter. The filtrate was analyzed by HPLC assay for concentration against DMSO standard curve.[40]
# Vero cells [11] = conditions: read-out: VERO IC50
# Procedure: as §2
# physchem [12] = assay: physchem
# M. tuberculosis H37Rv [13] = test system: M. tuberculosis H37Rv; set-up: species or system Mycobacterium tuberculosis; conditions: in vivo
# [14] = C57 Black, mouse, in vivo, po
# Procedure: Analysis of 37 in Mouse Blood samples (10mg/kg PO and 3mg/kg IV)
# in vivo [15] = conditions: Sprague-Dawley, rat; for AUC(0-t) at 24 h: AUC 0–24
# Procedure: (§4) Test compound was dosed orally by gavage at 5 mg of free base/kilogram (dose volume 5 mL/kg; dose vehicle 1.0% carboxy methyl cellulose, CMC) to male Sprague–Dawley Rats (n = 1 per time point). At predetermined time points, blood samples (100 μL) were taken from the hepatic portal vein into a tube containing EDTA. Immediately afterward, the remaining blood was taken by cardiac puncture into a separate tube containing EDTA to determine the concentration of compound reaching the systemic circulation. The blood was mixed with two volumes of distilled water and stored frozen until UPLC/MS/MS analysis. Pharmacokinetic parameters were derived from the blood concentration time curve using PK Solutions software v 2.0 (Summit Research Services, USA).
# [16] = Sprague-Dawley, rat, in vivo
# Procedure: as §4
# physchem [17] = assay: physchem; remark: listed apart in the source
# Procedure: as §3
# physchem [18] = assay: physchem; remark: listed apart in the source
# M. tuberculosis H37Rv [19] = format: cell-based, Mycobacterium tuberculosis
# Sequence of CYP2C9 (P11712 whole entry): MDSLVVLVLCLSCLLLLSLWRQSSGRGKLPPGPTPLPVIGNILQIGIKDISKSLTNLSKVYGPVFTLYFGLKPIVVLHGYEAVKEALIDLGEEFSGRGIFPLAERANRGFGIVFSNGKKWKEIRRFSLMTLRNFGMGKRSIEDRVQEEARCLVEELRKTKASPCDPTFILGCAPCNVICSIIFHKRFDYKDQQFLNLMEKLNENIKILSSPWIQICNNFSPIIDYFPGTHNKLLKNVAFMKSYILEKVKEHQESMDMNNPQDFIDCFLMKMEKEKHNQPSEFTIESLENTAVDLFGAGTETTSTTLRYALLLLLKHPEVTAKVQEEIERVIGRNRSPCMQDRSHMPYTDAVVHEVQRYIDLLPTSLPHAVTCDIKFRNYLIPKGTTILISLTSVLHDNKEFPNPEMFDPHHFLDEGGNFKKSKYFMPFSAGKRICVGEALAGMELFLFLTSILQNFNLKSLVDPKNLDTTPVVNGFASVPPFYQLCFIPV
# Sequence of CYP 2D6 (P10635 whole entry): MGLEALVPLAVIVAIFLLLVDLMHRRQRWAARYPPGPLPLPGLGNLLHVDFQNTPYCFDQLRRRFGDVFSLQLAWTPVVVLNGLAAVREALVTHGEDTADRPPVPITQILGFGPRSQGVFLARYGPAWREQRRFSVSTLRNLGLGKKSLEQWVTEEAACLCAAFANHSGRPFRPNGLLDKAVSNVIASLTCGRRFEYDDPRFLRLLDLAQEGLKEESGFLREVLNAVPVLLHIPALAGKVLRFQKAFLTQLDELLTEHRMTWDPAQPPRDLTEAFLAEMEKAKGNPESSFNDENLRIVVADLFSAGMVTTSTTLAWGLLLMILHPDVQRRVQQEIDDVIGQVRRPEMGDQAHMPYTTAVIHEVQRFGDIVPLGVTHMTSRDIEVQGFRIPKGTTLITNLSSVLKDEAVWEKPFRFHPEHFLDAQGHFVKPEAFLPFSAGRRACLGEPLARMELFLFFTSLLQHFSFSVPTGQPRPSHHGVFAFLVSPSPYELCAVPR
# Sequence of CYP2C19 (P33261 whole entry): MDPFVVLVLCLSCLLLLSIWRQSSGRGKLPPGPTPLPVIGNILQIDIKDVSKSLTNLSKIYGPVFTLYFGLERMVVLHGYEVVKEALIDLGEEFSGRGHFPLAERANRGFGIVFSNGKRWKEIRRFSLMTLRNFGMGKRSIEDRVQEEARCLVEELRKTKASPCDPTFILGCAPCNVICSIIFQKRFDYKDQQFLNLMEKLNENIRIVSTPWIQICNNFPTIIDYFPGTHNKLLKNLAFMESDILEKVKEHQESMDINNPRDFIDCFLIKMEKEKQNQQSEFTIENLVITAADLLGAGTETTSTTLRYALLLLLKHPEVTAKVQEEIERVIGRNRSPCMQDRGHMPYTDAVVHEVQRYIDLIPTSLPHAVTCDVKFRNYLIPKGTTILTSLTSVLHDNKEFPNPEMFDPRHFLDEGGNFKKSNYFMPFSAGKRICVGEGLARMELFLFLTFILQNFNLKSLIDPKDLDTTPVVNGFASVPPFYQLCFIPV
compound,measurement,setting,value
"NC(=O)c1sc(N2CCOCC2)cc1OCCc1ccccc1 [Compound 1, 5-Morpholino-3-phenethoxythiophene-2-carboxamide]",IC50,CYP2C9,7.94 µM
same,IC50,CYP 2D6,10 µM
same,AUC,in vivo [1],4830 ng·h/mL
same,bioavailability,in vivo [1],0.5%
same,P-glycoprotein (P-gp) efflux (in words),[2],no likely P-glycoprotein (P-gp) efflux issues
same,permeability (in words),[2],good permeability
same,P-gp Efflux B→ A/A → B,[2],0.8
same,IC50,Vero cells [3],> 100 µM
same,"Microsomal clearance, Human",[4],Human = 3.5 mL·min^−1·g^−1
same,IC50,CYP2C19,1.26 µM
same,CLB,[5],10 mL/min/kg
same,T1/2,[5],0.7 h
same,IC50,CYP 1A2,> 10 µM
same,Papp A→B,in vitro [6],45 ×10⁻⁶ cm/s
same,Papp B→A,in vitro [6],37 ×10⁻⁶ cm/s
same,Cli mouse,[7],19 mL.min^–1.g^–1
same,scaled Clpre,[7],81 mL/min/kg
same,CL mouse MEAN,"[7]; mouse, microsomes",18.63 mL/min/g
same,"Microsomal clearance, Mouse","[7]; mouse, microsomes",Mouse = 19 mL·min^−1·g^−1
same,in vitro mouse Clint,"[7]; mouse, microsomes",19 mL/min/g
same,IC50,in vitro [8],> 100 µM
same,MIC,M. tuberculosis H37Rv [9]; read-out: H37Rv MIC,0.13 µg/mL
same,MIC90,M. tuberculosis H37Rv [9],0.72 µM
same,MIC,M. tuberculosis H37Rv [9]; read-out: MIC WT,1.3 µM
same,IC90,M. tuberculosis H37Rv [9],0.608 µM
same,MIC (H37RvLP),M. tuberculosis H37Rv [9]; n = 14,0.72 ± 0.30 (n = 14)
"NC(=O)c1sc(N2CCOCC2)cc1OCCc1ccc(OC(F)(F)F)cc1 [Compound 37, 5-Morpholino-3-[2-[4-(trifluoromethoxy)phenyl]ethoxy]thiophene-2-carboxamide]",solubility in HTSA (in words),[10],poor solubility
same,AUC,in vivo [1],1730 ng·h/mL
same,bioavailability,in vivo [1],18%
same,IC50,Vero cells [11],37 µM
same,chromatographic logD,physchem [12],2.68
same,P-glycoprotein (P-gp) efflux (in words),[2],no likely P-glycoprotein (P-gp) efflux issues
same,permeability (in words),[2],good permeability
same,P-gp Efflux B→ A/A → B,[2],0.8
same,IC50,Vero cells [3],39 µM
same,CLB,[5],29 mL/min/kg
same,Papp A→B,in vitro [6],25 ×10⁻⁶ cm/s
same,Papp B→A,in vitro [6],20 ×10⁻⁶ cm/s
same,Cli mouse,[7],8 mL.min^–1.g^–1
same,scaled Clpre,[7],76 mL/min/kg
same,CL mouse MEAN,"[7]; mouse, microsomes",8.159 mL/min/g
same,in vitro mouse Clint,"[7]; mouse, microsomes",8 mL/min/g
same,growth of the bacteria in the lungs compared to untreated mice (in words),M. tuberculosis H37Rv [13],able to inhibit the growth of the bacteria in the lungs
same,"log CFUs per mouse (lungs), individual mice",M. tuberculosis H37Rv [13],6.1 log CFU and 5.8 log CFU
same,"log CFUs per mouse (lungs), mean",M. tuberculosis H37Rv [13],6.0 log CFU
same,log reduction of colony forming unit (CFU) counts in the lungs,"M. tuberculosis H37Rv [13]; po, 100 mg/kg",0.8 log
same,"% Peak Area, metabolite A N or S-oxide",[14],3%
same,"% Peak Area, metabolite B De-ethylation + oxidation",[14],3%
same,"% Peak Area, metabolite C De-ethylation",[14],2%
same,"% Peak Area, metabolite D Oxidation (x3)",[14],6%
same,"% Peak Area, metabolite E Hydroxylation",[14],27%
same,AUC(0-t) at 24 h,"in vivo [15]; iv, 1 mg/kg",550 ng·h/mL
same,Tmax,"in vivo [15]; male, po, 5 mg/kg",1 h
same,AUC(0-t) at 24 h,"in vivo [15]; male, po, 5 mg/kg",583 ng·h/mL
same,Cmax,"in vivo [15]; male, po, 5 mg/kg, Cmax",200 ng/mL
same,Clb,"[16]; iv, 1 mg/kg",30
same,T1/2,"[16]; iv, 1 mg/kg",0.5 h
same,Cmax,"[16]; male, po, 5 mg/kg",140 ng/mL
same,F,"[16]; male, po, 5 mg/kg",12%
same,AUC 0–24,"[16]; male, po, 5 mg/kg, 24 h",19
same,solubility,physchem [17]; pH 2,2 µg/mL
same,solubility,physchem [17]; pH 6,1 µg/mL
same,solubility,physchem [17]; pH 7.4,1 µg/mL
same,MIC,M. tuberculosis H37Rv [9]; read-out: H37Rv MIC,0.083 µg/mL
same,MIC90,M. tuberculosis H37Rv [9],0.24 µM
same,MIC,M. tuberculosis H37Rv [9]; read-out: MIC WT,0.24 µM
same,IC90,M. tuberculosis H37Rv [9],0.217 µM
"NC(=O)c1cc(N2CCOCC2)ccc1OCCc1ccccc1 [Compound 55, 5-Morpholino-2-(2-phenylethoxy)benzamide]",AUC,in vivo [1],1590 ng·h/mL
same,bioavailability,in vivo [1],5%
same,chromatographic logD,physchem [12],1.9
same,IC50,Vero cells [3],> 100 µM
same,CLB,[5],32 mL/min/kg
same,T1/2,[5],1.2 h
same,solubility,physchem [18]; pH 2.4,1300 µg/mL
same,solubility,physchem [18]; pH 6,300 µg/mL
same,Cli mouse,[7],3.8 mL.min^–1.g^–1
same,scaled Clpre,[7],68 mL/min/kg
same,CL mouse MEAN,"[7]; mouse, microsomes",3.79 mL/min/g
same,in vitro mouse Clint,"[7]; mouse, microsomes",4 mL/min/g
same,solubility,physchem [17]; pH 2,600 µg/mL
same,solubility,physchem [17]; pH 6,300 µg/mL
same,solubility,physchem [17]; pH 7.4,300 µg/mL
same,MIC,M. tuberculosis H37Rv [9]; read-out: H37Rv MIC,1.9 µg/mL
same,MIC90,M. tuberculosis H37Rv [9],5.7 µM
CCc1nc2ccc(Cl)cn2c1C(=O)NCc1ccc(N2CCC(c3ccc(OC(F)(F)F)cc3)CC2)cc1 [Compound Q203],ATP levels versus growth (OD590),M. tuberculosis H37Rv [19],depletion of ATP occurred at lower concentrations than required to inhibit growth
CO[C@H]1/C=C/O[C@@]2(C)Oc3c(C)c(O)c4c(O)c(c(/C=N/N5CCN(C)CC5)c(O)c4c3C2=O)NC(=O)/C(C)=C\C=C\[C@H](C)[C@H](O)[C@@H](C)[C@@H](O)[C@@H](C)[C@H](OC(C)=O)[C@@H]1C [rifampicin],ATP levels versus growth (OD590),M. tuberculosis H37Rv [19],correlated with growth

# — publication PMC6089501 (Journal of Medicinal Chemistry, 2018)
